# Values joined by “and” are separate entries in the source; they are usually repeats but may differ in a detail not shown here. Equal values may be shown once. Non-standard residues stand in square brackets, D forms with d. Residues, ends and D or L forms follow the SMILES beside them. pS = N[C@@H](COP(=O)(O)O)C(=O)O
# Experiments:
# [1] = biological target: T1, 14-3-3 epsilon (YWHAE) (Homo sapiens, UniProt P62258); test: Isothermal titration calorimetry (ITC) of GATAD1 peptides with 14-3-3ε; assay type: binding; conditions: 18 °C, 400 µM peptide in syringe, 25 µM 14-3-3ε in chamber, 20 mM HEPES pH 7.0, 150 mM NaCl, 2 mM DTT
# T1 construct: residues 1 and 236-255 are disordered and therefore not visible in the electron density; GST (N, cleaved yes); made in house; host or cells: Escherichia coli C41 (DE3)
# T1 sequence (P62258 1-255): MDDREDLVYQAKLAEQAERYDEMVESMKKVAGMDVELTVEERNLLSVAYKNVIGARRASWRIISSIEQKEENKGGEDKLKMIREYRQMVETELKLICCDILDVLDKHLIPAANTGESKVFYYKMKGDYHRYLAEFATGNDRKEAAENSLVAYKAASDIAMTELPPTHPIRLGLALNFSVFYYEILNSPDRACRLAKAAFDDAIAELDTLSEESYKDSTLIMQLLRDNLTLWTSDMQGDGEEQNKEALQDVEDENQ
# Experimental: The 14-3-3ε (YWHAE) cDNA was purchased from Twist Bioscience in the pTwist Chlor High Copy vector and cloned into the pGEX6P1 plasmid (GE Healthcare) for recombinant expression as a GST-fusion protein followed by a Prescission protease cleavage site. The plasmid was freshly transformed into Escherichia coli C41 (DE3) cells. Cultures were grown in terrific broth supplemented with ampicillin (100 μg/ml) at 37 °C and 80 rpm until an optical density at 600 nm of 0.7 was reached. […] Cells were harvested by centrifugation at 4000 g and frozen at −20 °C.
# Following resuspension in lysis buffer (50 mM HEPES/NaOH pH 7.5, 500 mM NaCl and 3 mM Dithiothreitol (DTT)) supplemented with 1 mg deoxyribonuclease I (DNaseI, Roche) and protease inhibitor 4-(2-Aminoethyl) benzenesulfonyl fluoride hydrochloride S7(AEBSF), cells were disrupted using a microfluidizer (Microfluidics). The cell extract was centrifuged at 55,000 g for 45 min at 4 °C to remove insoluble parts. The cleared supernatant was applied onto a prepacked Glutathione Sepharose 4B column (Cytiva) equilibrated in the lysis buffer. The column was extensively washed with lysis buffer. To cleave off the GST tag, 1 mg PreScission protease was diluted in 5 ml OCC buffer (50 mM HEPES/NaOH pH 7.5, 150 mM NaCl, and 3 mM DTT), applied to the column material, and incubated overnight at 4 °C. Cleaved 14-3-3ε protein was eluted from the column using OCC buffer, concentrated and loaded onto an 16/60 S200 column (Cytiva) equilibrated in SEC buffer (20 mM HEPES/NaOH pH 7.5, 150 mM NaCl and 2 mM DTT). Pure and homogenous 14-3-3ε was concentrated to 13 mg/ml, flash-frozen in liquid nitrogen, and stored at −80 °C until further use.
# GATAD1 peptides used in these experiments were obtained from JPT peptide technologies with an N-terminus in amine and a C-terminus in amide form with 95% purity. ITC experiments were performed using a PEAQ-ITC microcalorimeter (Malvern). All titrations were performed at 18 °C with 400 µM peptide in the syringe and 25 µM 14-3-3ε in the reaction chamber. The protein and the titration components were dissolved in a buffer containing 20 mM HEPES pH 7.0, 150 mM NaCl, and 2 mM DTT. Malvern software was used for data visualization and fitting. The raw ITC results can be found in Supplementary Fig. 42.
# [2] = tested on: 14-3-3 family proteins; test: PRISMA peptide pull-down screen, 14-3-3 binding to GATAD1 peptides; parameters: species or system human; conditions: LFQ volcano plot and SILAC scatter plot; HEK-293 lysate, triplicates
# From the text: (§1) A total of 117 peptides, consisting of 15 amino acids each, were synthesized in situ on a cellulose membrane using SPOT synthesis techniques[25] provided by JPT Peptide Technologies in Berlin, Germany. Among these peptides, 39 were wild-type non-phosphorylated, 39 were mutated, and 39 were phosphorylated. Whenever possible, the mutation site was positioned at position 7, which is in the center of the immobilized peptides, with their C-termini serving as the point of immobilization.
# (§2) For the experimental procedure, three membranes were initially incubated with the lysis buffer (HEPES (50 mM, pH 7.9), NaCl (150 mM), EGTA (1 mM), MgCl2 (1 mM), glycerol (20%), NP-40 (1%), SDS (0.1%), and sodium deoxycholate (0.5%)). The membranes were incubated with the lysis buffer until completely moistened. […]
# (§3) HEK-293 cells were lysed with the lysis buffer and the protein concentration was measured using DC protein assay (Bio-Rad). […]
# (§4) During the analysis, peptides were eluted from the analytical column at a flow rate of 500 nl/min, employing a gradient as follows: 5 to 10% B over 5 min, 10 to 40% B over 60 min, 40 to 99% B over 5 min, and maintaining 99% B for 5 min. The samples were measured in the orbitrap fusion mass spectrometer using the following methods: a full scan was performed with a resolution of 120,000 over an m/z range of 300–1500. […]
# [3] = tested on: 14-3-3 proteins (beta/alpha, gamma, epsilon, zeta, eta and theta); test: Alanine scanning PRISMA pull-down, 14-3-3 proteins; assay type: binding, human; conditions: PRISMA pull-down from HEK-293T lysate, LFQ, triplicates
# From the text: In this experiment, each amino acid from the −5 to +5 positions surrounding the phosphorylated residue was mutated to alanine, except for original alanine residues which were mutated to glycine. The experiment also included the wild-type phosphorylated, wild-type non-phosphorylated, disease-associated mutant, and aspartic acid mutant peptides. These 15 peptides were synthesized on a cellulose membrane in triplicates (n = 3 biological replicates) to facilitate the pull-down of proteins from HEK-293T cell lysate. The synthesis of peptides, pull-downs, and sample preparation for mass spectrometry followed the procedures described earlier for the PRISMA screen. Subsequently, samples were eluted from StageTips using a solution containing 50% acetonitrile and 0.1% formic acid, dried, and resuspended in a solution containing 3% acetonitrile and 0.1% formic acid. […]
# The acquired mass spectra were subjected to further analysis using MaxQuant (version 1.6.3.4). […] The LFQ values of significant proteins were z-scored by row and hierarchical clustering was performed (Fig. 6A and Supplementary Data 5). To better visualize the 14-3-3 proteins, their LFQ values were extracted from the whole table and were z scored and clustered individually (Fig. 5C).
# [4] = tested on: GRB2; test: PRISMA peptide pull-down screen, GRB2 binding to the EGFR control peptide; parameters: species or system human; conditions: PRISMA pull-down from SILAC-labelled HEK-293 lysate; in all three replicates
# From the text: as §1, §2, §3, §4
molecule,measurement,setting,value
CC(C)C[C@H](N)C(=O)N[C@@H](CCCNC(=N)N)C(=O)N[C@@H](CC(N)=O)C(=O)N[C@H](C(=O)N[C@@H](CCCCN)C(=O)N[C@@H](Cc1ccc(O)cc1)C(=O)N[C@@H](CCCCN)C(=O)N[C@@H](COP(=O)(O)O)C(=O)N[C@@H](C)C(=O)N1CCC[C@H]1C(=O)N[C@@H](C)C(=O)N[C@@H](C)C(=O)N[C@@H](CCC(=O)O)C(=O)N[C@@H](CCCCN)C(=O)N[C@@H](CCCCN)C(N)=O)[C@@H](C)O [GATAD1_phos] (H-LRNTKYK[pS]APAAEKK-NH2),N (stoichiometry) by ITC,[1],1.42 ± 0.04
same,Kd,"[1]; PEAQ-ITC, peptides N-terminal amine, C-terminal amide, read-out: Kd (binding constant) by ITC",~3 µM and 3.4 µM
same,Specific and differential binding of 14-3-3 proteins in PRISMA (in words),[2],specifically interacts with the multiple 14-3-3 protein family members
"LRNTKYKDAPAAEKK [S102D, phosphomimetic S102D mutant GATAD1 peptide]",Interaction with 14-3-3ε by ITC (in words),[1],do not interact
same,14-3-3 proteins pulled down in alanine scanning (in words),[3],did not interact
"TFLPVPEpYINQSVPK [EGFR_phos, positive control, well-characterized EGFR-derived phosphopeptide]",SILAC ratio phos/mut of GRB2,[4],> 20
same,SILAC ratio phos/wt of GRB2,[4],> 20
